Reference: ChEMBL document CHEMBL4507329, “Data for DCP probe BTZO-1” (2021)

Columns and labels:
[1] = test system: Tyrosine-protein kinase ABL1 (Homo sapiens), P00519 [H396P]; conditions: Compound concentration 1000.0 nM
[2] = test system: Tyrosine-protein kinase ABL1 (Homo sapiens), P00519 [T315I]; conditions: Compound concentration 1000.0 nM
[3] = biological target: Atypical kinase COQ8B, mitochondrial (Homo sapiens) (UniProt Q96D53); conditions: Compound concentration 1000.0 nM
[4] = biological target: Serine/threonine-protein kinase BRSK2 (Homo sapiens) (UniProt Q8IWQ3); conditions: Compound concentration 1000.0 nM
[5] = biological target: Cyclin-dependent kinase 5 (Homo sapiens) (UniProt Q00535); conditions: Compound concentration 1000.0 nM
[6] = biological target: Cyclin-dependent kinase-like 1 (Homo sapiens) (UniProt Q00532); conditions: Compound concentration 1000.0 nM
[7] = biological target: Cyclin-dependent kinase-like 2 (Homo sapiens) (UniProt Q92772); conditions: Compound concentration 1000.0 nM
[8] = biological target: Discoidin domain-containing receptor 2 (Homo sapiens) (UniProt Q16832); conditions: Compound concentration 1000.0 nM
[9] = test system: Epidermal growth factor receptor (Homo sapiens), P00533 [UNDEFINED MUTATION]; conditions: Compound concentration 1000.0 nM
[10] = biological target: Ephrin type-B receptor 3 (Homo sapiens) (UniProt P54753); conditions: Compound concentration 1000.0 nM
[11] = biological target: Receptor tyrosine-protein kinase erbB-2 (Homo sapiens) (UniProt P04626); conditions: Compound concentration 1000.0 nM
[12] = biological target: Mitogen-activated protein kinase 3 (Homo sapiens) (UniProt P27361); conditions: Compound concentration 1000.0 nM
[13] = biological target: Serine/threonine-protein kinase/endoribonuclease IRE1 (Homo sapiens) (UniProt O75460); conditions: Compound concentration 1000.0 nM
[14] = biological target: Tyrosine-protein kinase Fes/Fps (Homo sapiens) (UniProt P07332); conditions: Compound concentration 1000.0 nM
[15] = biological target: Tyrosine-protein kinase FRK (Homo sapiens) (UniProt P42685); conditions: Compound concentration 1000.0 nM
[16] = biological target: Mitogen-activated protein kinase kinase kinase kinase 1 (Homo sapiens) (UniProt Q92918); conditions: Compound concentration 1000.0 nM
[17] = biological target: Interleukin-1 receptor-associated kinase 3 (Homo sapiens) (UniProt Q9Y616); conditions: Compound concentration 1000.0 nM
[18] = biological target: Tyrosine-protein kinase JAK1 (Homo sapiens) (UniProt P23458); conditions: Compound concentration 1000.0 nM
[19] = biological target: Mitogen-activated protein kinase 8 (Homo sapiens) (UniProt P45983); conditions: Compound concentration 1000.0 nM
[20] = biological target: Serine/threonine-protein kinase LATS2 (Homo sapiens) (UniProt Q9NRM7); conditions: Compound concentration 1000.0 nM
[21] = biological target: Serine/threonine-protein kinase STK11 (Homo sapiens) (UniProt Q15831); conditions: Compound concentration 1000.0 nM
[22] = biological target: Mitogen-activated protein kinase kinase kinase 2 (Homo sapiens) (UniProt Q9Y2U5); conditions: Compound concentration 1000.0 nM
[23] = biological target: Mitogen-activated protein kinase kinase kinase kinase 5 (Homo sapiens) (UniProt Q9Y4K4); conditions: Compound concentration 1000.0 nM
[24] = biological target: Dual specificity mitogen-activated protein kinase kinase 3 (Homo sapiens) (UniProt P46734); conditions: Compound concentration 1000.0 nM
[25] = biological target: Dual specificity mitogen-activated protein kinase kinase 5 (Homo sapiens) (UniProt Q13163); conditions: Compound concentration 1000.0 nM
[26] = biological target: Myosin light chain kinase (Homo sapiens) (UniProt Q32MK0); conditions: Compound concentration 1000.0 nM
[27] = biological target: Serine/threonine-protein kinase 24 (Homo sapiens) (UniProt Q9Y6E0); conditions: Compound concentration 1000.0 nM
[28] = biological target: Serine/threonine-protein kinase 26 (Homo sapiens) (UniProt Q9P289); conditions: Compound concentration 1000.0 nM
[29] = biological target: Myosin-IIIb (Homo sapiens) (UniProt Q8WXR4); conditions: Compound concentration 1000.0 nM
[30] = biological target: Serine/threonine-protein kinase Nek3 (Homo sapiens) (UniProt P51956); conditions: Compound concentration 1000.0 nM
[31] = biological target: Cyclin-dependent kinase 17 (Homo sapiens) (UniProt Q00537); conditions: Compound concentration 1000.0 nM
[32] = biological target: Phosphorylase b kinase gamma catalytic chain, skeletal muscle/heart isoform (Homo sapiens) (UniProt Q16816); conditions: Compound concentration 1000.0 nM
[33] = biological target: Phosphatidylinositol 4,5-bisphosphate 3-kinase catalytic subunit gamma isoform (Homo sapiens) (UniProt P48736); conditions: Compound concentration 1000.0 nM
[34] = biological target: Serine/threonine-protein kinase PknB (Mycobacterium tuberculosis) (UniProt P9WI81); conditions: Compound concentration 1000.0 nM
[35] = biological target: Protein kinase C iota type (Homo sapiens) (UniProt P41743); conditions: Compound concentration 1000.0 nM
[36] = biological target: cGMP-dependent protein kinase 2 (Homo sapiens) (UniProt Q13237); conditions: Compound concentration 1000.0 nM
[37] = biological target: cAMP-dependent protein kinase catalytic subunit PRKX (Homo sapiens) (UniProt P51817); conditions: Compound concentration 1000.0 nM
[38] = biological target: Protein-tyrosine kinase 2-beta (Homo sapiens) (UniProt Q14289); conditions: Compound concentration 1000.0 nM
[39] = test system: Proto-oncogene tyrosine-protein kinase receptor Ret (Homo sapiens), P07949 [V804M]; conditions: Compound concentration 1000.0 nM
[40] = biological target: SRSF protein kinase 2 (Homo sapiens) (UniProt P78362); conditions: Compound concentration 1000.0 nM
[41] = biological target: 5-hydroxytryptamine receptor 1B (Homo sapiens) (UniProt P28222); conditions: Compound concentration 10.0 uM
[42] = biological target: D(4) dopamine receptor (Homo sapiens) (UniProt P21917); conditions: Compound concentration 10.0 uM
[43] = biological target: Histamine H3 receptor (Homo sapiens) (UniProt Q9Y5N1); conditions: Compound concentration 10.0 uM
[44] = biological target: Alpha-1B adrenergic receptor (Homo sapiens) (UniProt P35368); conditions: Compound concentration 10.0 uM
[45] = biological target: Alpha-2B adrenergic receptor (Homo sapiens) (UniProt P18089); conditions: Compound concentration 10.0 uM

Sequence of Serine/threonine-protein kinase Nek3 (Homo sapiens) (P51956 whole entry): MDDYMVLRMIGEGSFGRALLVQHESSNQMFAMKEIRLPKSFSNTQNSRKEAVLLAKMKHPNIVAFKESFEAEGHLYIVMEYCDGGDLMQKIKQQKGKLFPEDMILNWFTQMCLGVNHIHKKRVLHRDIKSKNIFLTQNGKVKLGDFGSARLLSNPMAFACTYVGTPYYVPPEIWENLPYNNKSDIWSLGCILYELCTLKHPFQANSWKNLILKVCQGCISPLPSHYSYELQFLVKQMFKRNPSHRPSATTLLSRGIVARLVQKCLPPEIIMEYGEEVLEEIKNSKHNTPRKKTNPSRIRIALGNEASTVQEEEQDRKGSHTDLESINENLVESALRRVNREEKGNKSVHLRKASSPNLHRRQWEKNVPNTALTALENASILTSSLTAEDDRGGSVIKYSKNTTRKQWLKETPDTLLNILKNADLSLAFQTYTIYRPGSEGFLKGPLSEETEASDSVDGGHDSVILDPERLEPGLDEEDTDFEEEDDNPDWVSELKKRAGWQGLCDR
Sequence of Dual specificity mitogen-activated protein kinase kinase 3 (Homo sapiens) (P46734 whole entry): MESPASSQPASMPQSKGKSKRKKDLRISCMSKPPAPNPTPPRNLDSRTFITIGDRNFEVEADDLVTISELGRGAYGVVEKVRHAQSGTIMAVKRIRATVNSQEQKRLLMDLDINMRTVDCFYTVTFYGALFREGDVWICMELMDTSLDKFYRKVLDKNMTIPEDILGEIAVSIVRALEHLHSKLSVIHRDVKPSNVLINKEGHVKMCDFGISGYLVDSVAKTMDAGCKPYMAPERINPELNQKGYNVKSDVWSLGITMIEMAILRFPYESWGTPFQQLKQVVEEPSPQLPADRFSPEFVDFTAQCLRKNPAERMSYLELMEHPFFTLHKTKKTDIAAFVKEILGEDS
Sequence of Mitogen-activated protein kinase 3 (Homo sapiens) (P27361 whole entry): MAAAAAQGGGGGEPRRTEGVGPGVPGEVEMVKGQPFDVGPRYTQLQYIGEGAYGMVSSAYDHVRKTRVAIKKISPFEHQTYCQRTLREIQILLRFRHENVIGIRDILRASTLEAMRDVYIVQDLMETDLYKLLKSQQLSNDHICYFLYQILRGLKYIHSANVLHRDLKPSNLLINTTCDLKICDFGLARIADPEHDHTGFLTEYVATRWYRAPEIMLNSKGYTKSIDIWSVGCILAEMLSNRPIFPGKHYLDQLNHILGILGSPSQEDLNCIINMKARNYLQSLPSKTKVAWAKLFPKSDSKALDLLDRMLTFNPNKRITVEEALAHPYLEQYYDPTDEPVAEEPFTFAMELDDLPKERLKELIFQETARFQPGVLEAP
Sequence of cGMP-dependent protein kinase 2 (Homo sapiens) (Q13237 whole entry): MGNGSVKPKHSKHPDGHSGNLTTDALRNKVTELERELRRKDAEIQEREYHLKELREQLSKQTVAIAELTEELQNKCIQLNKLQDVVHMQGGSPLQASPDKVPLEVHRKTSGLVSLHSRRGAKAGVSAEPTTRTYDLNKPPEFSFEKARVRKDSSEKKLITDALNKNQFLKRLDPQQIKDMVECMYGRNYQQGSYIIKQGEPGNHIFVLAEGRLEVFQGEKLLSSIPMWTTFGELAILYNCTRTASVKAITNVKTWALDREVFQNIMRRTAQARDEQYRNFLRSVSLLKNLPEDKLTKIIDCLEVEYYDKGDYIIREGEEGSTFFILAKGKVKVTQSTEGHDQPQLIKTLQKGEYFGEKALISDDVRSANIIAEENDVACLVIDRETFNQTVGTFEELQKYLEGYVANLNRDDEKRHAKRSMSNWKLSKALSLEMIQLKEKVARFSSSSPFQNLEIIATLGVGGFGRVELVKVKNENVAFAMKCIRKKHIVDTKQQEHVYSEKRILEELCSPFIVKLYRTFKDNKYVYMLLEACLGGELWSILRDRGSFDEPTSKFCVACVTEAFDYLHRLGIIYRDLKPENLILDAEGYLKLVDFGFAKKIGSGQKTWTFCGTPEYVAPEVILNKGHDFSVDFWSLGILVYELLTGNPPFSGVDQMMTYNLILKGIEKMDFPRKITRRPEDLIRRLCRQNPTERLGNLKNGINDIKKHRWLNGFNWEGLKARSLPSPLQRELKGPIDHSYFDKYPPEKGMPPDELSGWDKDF
Sequence of Mitogen-activated protein kinase kinase kinase kinase 1 (Homo sapiens) (Q92918 whole entry, looked up): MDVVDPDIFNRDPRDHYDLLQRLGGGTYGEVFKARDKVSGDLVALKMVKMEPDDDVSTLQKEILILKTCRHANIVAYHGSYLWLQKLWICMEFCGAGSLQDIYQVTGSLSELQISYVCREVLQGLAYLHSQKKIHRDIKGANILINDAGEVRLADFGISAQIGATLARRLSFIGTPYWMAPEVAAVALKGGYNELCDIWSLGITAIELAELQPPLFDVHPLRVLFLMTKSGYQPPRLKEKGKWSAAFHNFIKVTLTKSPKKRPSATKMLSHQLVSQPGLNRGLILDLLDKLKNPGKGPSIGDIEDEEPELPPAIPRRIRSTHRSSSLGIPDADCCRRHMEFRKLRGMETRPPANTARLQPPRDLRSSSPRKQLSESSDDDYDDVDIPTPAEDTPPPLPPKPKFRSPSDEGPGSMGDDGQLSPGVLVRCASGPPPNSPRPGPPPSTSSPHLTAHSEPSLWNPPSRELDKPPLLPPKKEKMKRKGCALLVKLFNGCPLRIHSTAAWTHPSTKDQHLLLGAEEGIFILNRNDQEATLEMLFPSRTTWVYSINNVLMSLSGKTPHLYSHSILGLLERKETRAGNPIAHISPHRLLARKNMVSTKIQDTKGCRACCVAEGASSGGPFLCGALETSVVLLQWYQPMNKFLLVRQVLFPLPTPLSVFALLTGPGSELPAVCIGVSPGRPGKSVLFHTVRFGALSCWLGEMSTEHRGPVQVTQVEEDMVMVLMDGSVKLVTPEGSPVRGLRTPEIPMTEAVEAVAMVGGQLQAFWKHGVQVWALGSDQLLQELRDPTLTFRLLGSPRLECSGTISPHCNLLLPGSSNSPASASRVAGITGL
Sequence of D(4) dopamine receptor (Homo sapiens) (P21917 whole entry): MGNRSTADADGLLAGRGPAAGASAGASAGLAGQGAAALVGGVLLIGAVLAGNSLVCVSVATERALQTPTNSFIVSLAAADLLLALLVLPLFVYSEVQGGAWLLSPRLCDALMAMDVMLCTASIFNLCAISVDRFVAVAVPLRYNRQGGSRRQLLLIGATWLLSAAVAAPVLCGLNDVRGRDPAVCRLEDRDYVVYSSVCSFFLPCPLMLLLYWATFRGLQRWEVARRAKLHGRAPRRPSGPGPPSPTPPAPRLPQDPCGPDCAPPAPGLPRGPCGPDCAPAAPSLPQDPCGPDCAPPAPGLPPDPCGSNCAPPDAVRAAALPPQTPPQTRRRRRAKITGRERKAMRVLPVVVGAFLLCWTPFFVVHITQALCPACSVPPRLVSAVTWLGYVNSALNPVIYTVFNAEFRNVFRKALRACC
Sequence of Protein kinase C iota type (Homo sapiens) (P41743 whole entry): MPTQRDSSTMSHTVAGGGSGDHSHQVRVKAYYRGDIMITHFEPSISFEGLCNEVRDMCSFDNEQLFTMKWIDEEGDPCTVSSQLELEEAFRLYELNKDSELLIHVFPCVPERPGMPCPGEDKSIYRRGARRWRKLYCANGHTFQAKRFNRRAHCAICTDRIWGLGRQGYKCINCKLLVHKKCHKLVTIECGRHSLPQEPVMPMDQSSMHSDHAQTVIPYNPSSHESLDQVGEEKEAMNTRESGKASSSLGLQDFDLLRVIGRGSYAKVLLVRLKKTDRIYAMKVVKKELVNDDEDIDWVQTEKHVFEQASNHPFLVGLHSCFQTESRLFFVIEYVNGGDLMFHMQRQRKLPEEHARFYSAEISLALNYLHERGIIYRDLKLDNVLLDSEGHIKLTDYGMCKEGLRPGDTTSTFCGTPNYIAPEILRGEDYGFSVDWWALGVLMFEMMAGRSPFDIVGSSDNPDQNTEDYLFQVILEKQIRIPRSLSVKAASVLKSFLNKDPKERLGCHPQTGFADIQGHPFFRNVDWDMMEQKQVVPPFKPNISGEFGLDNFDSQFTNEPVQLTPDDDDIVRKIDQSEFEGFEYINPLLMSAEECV
Sequence of Phosphorylase b kinase gamma catalytic chain, skeletal muscle/heart isoform (Homo sapiens) (Q16816 whole entry, looked up, canonical isoform): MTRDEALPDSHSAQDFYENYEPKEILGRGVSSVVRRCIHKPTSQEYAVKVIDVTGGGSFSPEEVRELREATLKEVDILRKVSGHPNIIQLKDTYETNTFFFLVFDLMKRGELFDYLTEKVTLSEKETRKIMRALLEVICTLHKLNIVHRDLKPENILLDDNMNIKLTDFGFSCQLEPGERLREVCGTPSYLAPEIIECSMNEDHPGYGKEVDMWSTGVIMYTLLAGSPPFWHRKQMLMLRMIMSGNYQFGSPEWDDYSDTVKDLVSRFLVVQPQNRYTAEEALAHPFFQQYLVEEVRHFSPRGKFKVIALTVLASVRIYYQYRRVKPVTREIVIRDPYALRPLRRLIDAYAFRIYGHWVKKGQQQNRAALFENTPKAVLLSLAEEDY
Sequence of Serine/threonine-protein kinase 26 (Homo sapiens) (Q9P289 2-416 limits assumed): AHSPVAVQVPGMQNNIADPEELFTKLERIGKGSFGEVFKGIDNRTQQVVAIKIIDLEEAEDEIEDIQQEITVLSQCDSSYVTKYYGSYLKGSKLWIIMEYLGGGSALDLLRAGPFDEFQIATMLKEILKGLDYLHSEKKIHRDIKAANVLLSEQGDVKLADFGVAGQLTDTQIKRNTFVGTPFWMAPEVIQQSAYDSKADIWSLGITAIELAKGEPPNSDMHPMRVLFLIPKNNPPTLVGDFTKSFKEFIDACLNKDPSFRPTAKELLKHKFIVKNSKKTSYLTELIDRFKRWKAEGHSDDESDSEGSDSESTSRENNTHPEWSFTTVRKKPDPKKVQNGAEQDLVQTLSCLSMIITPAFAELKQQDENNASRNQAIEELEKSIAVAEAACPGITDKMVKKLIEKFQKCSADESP
Sequence of Cyclin-dependent kinase 5 (Homo sapiens) (Q00535 whole entry, looked up): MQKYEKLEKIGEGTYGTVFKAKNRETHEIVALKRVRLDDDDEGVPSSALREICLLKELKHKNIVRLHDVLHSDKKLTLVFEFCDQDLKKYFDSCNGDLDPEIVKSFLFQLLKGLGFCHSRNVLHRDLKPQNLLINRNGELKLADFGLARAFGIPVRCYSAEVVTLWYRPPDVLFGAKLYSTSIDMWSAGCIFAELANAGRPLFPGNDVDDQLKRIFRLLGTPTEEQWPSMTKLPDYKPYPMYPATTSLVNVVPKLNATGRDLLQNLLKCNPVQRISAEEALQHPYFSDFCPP

O=c1nc(-c2ccccn2)sc2ccccc12 [BTZO-1]
inactive: residual activity [1] 100% | residual activity [2] 100% | residual activity [3] 60% | residual activity [4] 100% | residual activity [5] 85% | residual activity [6] 87% | residual activity [7] 76% | residual activity [8] 100% | residual activity [9] 74% | residual activity [10] 100% | residual activity [11] 65% | residual activity [12] 80% | residual activity [13] 100% | residual activity [14] 100% | residual activity [15] 100% | residual activity [16] 100% | residual activity [17] 82% | residual activity [18] 71% | residual activity [19] 100% | residual activity [20] 79% | residual activity [21] 79% | residual activity [22] 92% | residual activity [23] 100% | residual activity [24] 75% | residual activity [25] 79% | residual activity [26] 100% | residual activity [27] 100% | residual activity [28] 100% | residual activity [29] 79% | residual activity [30] 72% | residual activity [31] 100% | residual activity [32] 84% | residual activity [33] 100% | residual activity [34] 88% | residual activity [35] 100% | residual activity [36] 96% | residual activity [37] 100% | residual activity [38] 100% | residual activity [39] 100% | residual activity [40] 100% | inhibition [41] -1.9% | inhibition [42] 10.1% | inhibition [43] 2% | inhibition [44] 9.84% | inhibition [45] 17%

O=C1NC(c2ccccn2)Sc2ccccc21 (stereo not given) [BTZO-4]
inactive: residual activity [1] 80% | residual activity [2] 100% | residual activity [3] 67% | residual activity [4] 100% | residual activity [5] 86% | residual activity [6] 75% | residual activity [7] 76% | residual activity [8] 100% | residual activity [9] 68% | residual activity [10] 80% | residual activity [11] 71% | residual activity [12] 74% | residual activity [13] 100% | residual activity [14] 94% | residual activity [15] 100% | residual activity [16] 95% | residual activity [17] 87% | residual activity [18] 68% | residual activity [19] 100% | residual activity [20] 70% | residual activity [21] 87% | residual activity [22] 82% | residual activity [23] 100% | residual activity [24] 81% | residual activity [25] 87% | residual activity [26] 100% | residual activity [27] 94% | residual activity [28] 80% | residual activity [29] 96% | residual activity [30] 80% | residual activity [31] 100% | residual activity [32] 76% | residual activity [33] 91% | residual activity [34] 77% | residual activity [35] 72% | residual activity [36] 90% | residual activity [37] 100% | residual activity [38] 76% | residual activity [39] 86% | residual activity [40] 100% | inhibition [41] 12.3% | inhibition [42] 7.31% | inhibition [43] 8.1% | inhibition [44] -5.82% | inhibition [45] -5.58%
